From patent US9796733B2, “Imidazo-pyrazine derivatives useful as soluble guanylate cyclase activators” (Merck Sharp & Dohme Corp., priority 2014, dated 2017)

Experiments:
sGC α1/β1 heterodimer = biological target: T1, sGC α1/β1 heterodimer (Homo sapiens, UniProt Q02108+Q02153); assay: Cell-based sGC functional assay (CASA assay): cGMP generation in CHO-K1/sGC cells, HTRF detection; settings: for Emax: CHO-K1, percent activation relative to standard Compound A in CHO-K1/sGC cells, read-out: % Act.; for EC50: inflection point (IP) of cGMP generation in CHO-K1/sGC cells, 4P fit, activity expressed as percentage of Compound A
T1 construct: expressed in transfected cells; host or cells: CHO-K1 (clone #7, CHO-K1/sGC)
T1 sequence (Q02108 1-690): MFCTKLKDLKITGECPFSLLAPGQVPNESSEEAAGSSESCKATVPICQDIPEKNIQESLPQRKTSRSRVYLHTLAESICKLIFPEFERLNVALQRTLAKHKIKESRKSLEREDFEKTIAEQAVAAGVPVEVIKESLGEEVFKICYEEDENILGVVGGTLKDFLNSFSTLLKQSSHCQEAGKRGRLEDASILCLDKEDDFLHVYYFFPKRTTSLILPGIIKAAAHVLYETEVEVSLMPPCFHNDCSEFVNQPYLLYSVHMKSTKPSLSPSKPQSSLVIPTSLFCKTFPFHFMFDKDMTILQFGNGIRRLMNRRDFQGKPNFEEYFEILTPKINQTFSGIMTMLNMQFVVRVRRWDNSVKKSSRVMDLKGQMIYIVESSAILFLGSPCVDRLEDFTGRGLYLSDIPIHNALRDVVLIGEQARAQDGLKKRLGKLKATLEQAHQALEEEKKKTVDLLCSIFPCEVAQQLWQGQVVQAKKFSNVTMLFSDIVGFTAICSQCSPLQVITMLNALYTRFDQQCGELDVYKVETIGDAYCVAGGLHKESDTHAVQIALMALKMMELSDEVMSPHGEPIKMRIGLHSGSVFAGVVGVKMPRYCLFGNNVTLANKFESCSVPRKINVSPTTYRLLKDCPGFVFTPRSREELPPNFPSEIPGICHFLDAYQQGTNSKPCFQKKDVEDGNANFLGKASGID
T1 sequence (Q02153 1-619): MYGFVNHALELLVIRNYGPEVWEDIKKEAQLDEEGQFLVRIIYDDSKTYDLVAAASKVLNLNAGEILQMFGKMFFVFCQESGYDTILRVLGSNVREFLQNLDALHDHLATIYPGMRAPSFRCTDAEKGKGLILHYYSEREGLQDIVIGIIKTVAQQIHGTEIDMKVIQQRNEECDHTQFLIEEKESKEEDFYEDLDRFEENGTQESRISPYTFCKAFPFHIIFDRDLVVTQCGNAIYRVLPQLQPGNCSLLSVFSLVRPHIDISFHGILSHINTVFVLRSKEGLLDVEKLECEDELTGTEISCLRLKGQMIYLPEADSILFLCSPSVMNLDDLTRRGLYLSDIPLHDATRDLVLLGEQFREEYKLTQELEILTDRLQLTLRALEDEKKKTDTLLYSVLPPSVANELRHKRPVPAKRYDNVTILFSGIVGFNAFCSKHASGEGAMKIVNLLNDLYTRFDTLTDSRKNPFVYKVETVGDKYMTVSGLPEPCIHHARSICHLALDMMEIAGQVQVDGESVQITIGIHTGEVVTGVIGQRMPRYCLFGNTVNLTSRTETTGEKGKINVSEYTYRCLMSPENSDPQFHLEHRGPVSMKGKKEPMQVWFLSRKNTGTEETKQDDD
Method in brief: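 Stable CHO-K1/sGC cells in EBSS buffer with 5 mM MgCl2, 0.05% BSA and 0.5 mM IBMX were incubated with compound (2.5% DMSO final) ±1 μM DETA-NO for 1 hr at 37° C. cGMP was measured by HTRF. Activation is expressed as % of reference HDA Compound A maximum, with IP and max fold induction from a 4P fit.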

[1] = test system: Spontaneously hypertensive rats (SHR); assay: Acute efficacy in spontaneously hypertensive rats (SHR): telemetry blood pressure lowering after a single oral dose; assay type: in vivo, rat
Method in brief: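 Male SHR carrying aortic telemetry implants (14-day recovery) received a single oral gavage of compound or vehicle (10% transcutol/20% Cremophor/70% water). Conscious blood pressure was sampled 30 s every 10 min and averaged hourly; change was taken against the prior-day vehicle baseline, reported as maximum peak SBP decrease at a given PO dose (mpk).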

Structure (SMILES)	Emax (sGC α1/β1 heterodimer) [%]	EC50 (sGC α1/β1 heterodimer) [nM]	Maximum peak decrease of systolic blood pressure (SBP) in SHR, Cat. ([1]; P.O. 2.0 mpk)	Maximum peak decrease of systolic blood pressure (SBP) in SHR, Cat. ([1]; P.O. 1.0 mpk)	Maximum peak decrease of systolic blood pressure (SBP) in SHR, Cat. ([1]; P.O. 3.0 mpk)	Maximum peak decrease of systolic blood pressure (SBP) in SHR, Cat. ([1]; P.O. 0.3 mpk)
CC1(c2noc(C3CC3)n2)C(=O)Nc2nc(-c3cn4ccnc4c(CCC(F)(F)C(F)(F)F)n3)nc(N)c21 (single isomer, unassigned) [Example 333B, 4-amino-5-(5-cyclopropyl-1,2,4-oxadiazol-3-yl)-5-methyl-2-(8-(3,3,4,4,4-pentafluorobutyl)imidazo[1,2-a]pyrazin-6-yl)-5H-pyrrolo[2,3-d]pyrimidin-6(7H)-one]	81	84	B (Category B=SBP in SHRs 20-40 mmHg)			
COc1cn2cc(-c3nc(N)c4c(n3)NC(=O)C4(C)c3ccc(F)cc3)nc(CCCC(F)(F)F)c2n1 (stereo not drawn) [Example 176A, 4-amino-5-(4-fluorophenyl)-2-(2-methoxy-8-(4,4,4-trifluorobutyl)imidazo[1,2-a]pyrazin-6-yl)-5-methyl-5H-pyrrolo[2,3-d]pyrimidin-6(7H)-one]	107	79		B (Category B=SBP in SHRs 20-40 mmHg)		
Nc1nc(-c2cn3ccnc3c(CCC(F)(F)C(F)(F)F)n2)nc2c1C(C(=O)NC1CC1)(C1CC1)C(=O)N2 (single isomer, unassigned) [Example 61A, 4-amino-N,5-dicyclopropyl-6-oxo-2-(8-(3,3,4,4,4-pentafluorobutyl)imidazo[1,2-a]pyrazin-6-yl)-6,7-dihydro-5H-pyrrolo[2,3-d]pyrimidine-5-carboxamide]	95	424			B (Category B=SBP in SHRs 20-40 mmHg)	
CCCc1nc(-c2nc(N)c3c(n2)NC(=O)C3(c2ccc(Cl)cc2F)C2CC2)cn2ccnc12 (stereo not drawn) [Example 360A, 4-amino-5-(4-chloro-2-fluorophenyl)-5-cyclopropyl-2-(8-propylimidazo[1,2-a]pyrazin-6-yl)-5H-pyrrolo[2,3-d]pyrimidin-6(7H)-one]	129	43			B (Category B=SBP in SHRs 20-40 mmHg)	
Nc1nc(-c2cn3ccnc3c(CCC(F)(F)C(F)(F)F)n2)nc2c1C(c1ccc(F)cc1)(C1CC1)C(=O)N2 (stereo not drawn) [Example 233B, 4-amino-5-cyclopropyl-5-(4-fluorophenyl)-2-(8-(3,3,4,4,4-pentafluorobutyl)imidazo [1,2-a]pyrazin-6-yl)-5H-pyrrolo[2,3-d]pyrimidin-6(7H)-one]	131	43				B (Category B=SBP in SHRs 20-40 mmHg)
CN1CCN(c2nc(-c3cn4ccnc4c(CCC(F)(F)C(F)(F)F)n3)nc3c2C(C)(c2ccc(F)cc2)C(=O)N3)CC1 (stereo not drawn) [Example 311A, 5-(4-fluorophenyl)-5-methyl-4-(4-methylpiperazin-1-yl)-2-(8-(3,3,4,4,4-pentafluorobutyl)imidazo[1,2-a]pyrazin-6-yl)-5H-pyrrolo[2,3-d]pyrimidin-6(7H)-one]	92	29				A (Category A=SBP in SHRs<20 mmHg)
COc1cn2cc(-c3nc(N)c4c(n3)NC(=O)C4(C)c3ccc(F)cn3)nc(CCC(F)(F)C(F)(F)F)c2n1 (stereo not drawn) [Example 175B, 4-amino-5-(5-fluoropyridin-2-yl)-2-(2-methoxy-8-(3,3,4,4,4-pentafluorobutyl)imidazo [1,2-a]pyrazin-6-yl)-5-methyl-5H-pyrrolo[2,3-d]pyrimidin-6(7H)-one]	88	501		A (Category A=SBP in SHRs<20 mmHg)		
CCc1ccc(C2(C)C(=O)Nc3nc(-c4cn5ccnc5c(CCC(F)(F)C(F)(F)F)n4)nc(N)c32)cn1 (stereo not drawn) [Example 243B, 4-amino-5-(6-ethylpyridin-3-yl)-5-methyl-2-(8-(3,3,4,4,4-pentafluorobutyl)imidazo [1,2-a]pyrazin-6-yl)-5H-pyrrolo[2,3-d]pyrimidin-6(7H)-one]	106	208		A (Category A=SBP in SHRs<20 mmHg)		
Nc1nc(-c2cn3ccnc3c(CCCC(F)(F)F)n2)nc2c1C(c1ccc(F)cc1)(C1CC1)C(=O)N2 (stereo not drawn) [Example 205B, 4-amino-5-cyclopropyl-5-(4-fluorophenyl)-2-(8-(4,4,4-trifluorobutyl)imidazo[1,2-a]pyrazin-6-yl)-5H-pyrrolo[2,3-d]pyrimidin-6(7H)-one]	127	20				C (Category C=SBP in SHRs>40 mmHg)
CC1(c2ccc(Cl)cn2)C(=O)Nc2nc(-c3cn4ccnc4c(CCC(F)(F)F)n3)nc(N)c21 (stereo not drawn) [Example 201A, 4-amino-5-(5-chloropyridin-2-yl)-5-methyl-2-(8-(3,3,3-trifluoropropyl)imidazo[1,2-a]pyrazin-6-yl)-5H-pyrrolo[2,3-d]pyrimidin-6(7H)-one]	140	928			C (Category C=SBP in SHRs>40 mmHg)	
CCC1(c2ccc(Br)cc2)C(=O)Nc2nc(-c3cn4ccnc4c(CCC(F)(F)F)n3)nc(N)c21 (stereo not drawn) [Example 197A, 4-amino-5-(4-bromophenyl)-5-ethyl-2-(8-(3,3,3-trifluoropropyl)imidazo[1,2-a]pyrazin-6-yl)-5H-pyrrolo[2,3-d]pyrimidin-6(7H)-one]	66	163			B (Category B=SBP in SHRs 20-40 mmHg)	
Nc1nc(-c2cn3ccnc3c(CCC(F)(F)C(F)(F)F)n2)nc2c1C(c1ccc(Cl)cc1)(C1CC1)C(=O)N2 (stereo not drawn) [Example 235B, 4-amino-5-(4-chlorophenyl)-5-cyclopropyl-2-(8-(3,3,4,4,4-pentafluorobutyl)imidazo [1,2-a]pyrazin-6-yl)-5H-pyrrolo[2,3-d]pyrimidin-6(7H)-one]	148	36				B (Category B=SBP in SHRs 20-40 mmHg)
CCCc1nc(-c2nc(N)c3c(n2)NC(=O)C3(c2ccc(Cl)cc2)C2CC2)cn2ccnc12 (stereo not drawn) [Example 26B, 4-amino-5-(4-chlorophenyl)-5-cyclopropyl-2-(8-propylimidazo[1,2-a]pyrazin-6-yl)-5H-pyrrolo[2,3-d]pyrimidin-6(7H)-one]	81	253			B (Category B=SBP in SHRs 20-40 mmHg)	
CNc1nc(-c2cn3ccnc3c(CCC(F)(F)C(F)(F)F)n2)nc2c1C(C)(c1ccc(F)cn1)C(=O)N2 (stereo not drawn) [Example 290B, 5-(5-fluoropyridin-2-yl)-5-methyl-4-(methylamino)-2-(8-(3,3,4,4,4-pentafluorobutyl)imidazo[1,2-a]pyrazin-6-yl)-5H-pyrrolo[2,3-d]pyrimidin-6(7H)-one]	106	280			B (Category B=SBP in SHRs 20-40 mmHg)	
CC1(C)C(=O)Nc2nc(-c3cn4ccnc4c(Cc4ccccc4)n3)nc(N)c21 [Example 76, 4-amino-2-(8-benzylimidazo[1,2-a]pyrazin-6-yl)-5,5-dimethyl-5H-pyrrolo[2,3-d]pyrimidin-6(7H)-one]	119	91		B (Category B=SBP in SHRs 20-40 mmHg)		
